# Measured values reported in patent US8168199B2, “Dipeptidyl peptidase IV inhibitors for the treatment of schizophrenia and depression” (priority 2000, dated 2012).
# Tests used:
# [1] = system: Male WistarF/Han (WF) rats; test: Social interaction (SI) test with Y1R antagonist BIBP3226, P32/98 and NPY (Example 4); format: in vivo, rat; settings: i.c.v. 50 nmol
# Experimental: (§1) Animals. Male WistarF/Han (WF) rats (Central Animal Laboratory, Hannover Medical School, Hannover, Germany, weighing 330±31 g±SD, were housed in a sound-proof, temperature controlled (24.0±0.5° C.) room under specific pathogen free conditions with a 12/12 h dark/light cycle (lights on at 07.00 with illumination level of 80 Lux). Food (Altromin lab chow pellets) and tap water were available ad libitum. Under ketamine/xylasine (100/5 mg/kg, i.p.) anesthesia, the rats were fixed in a Kopf stereotaxic frame and implanted with cannulae (Plastic One, Inc., Roanoke, Va., USA) above the lateral ventricle. All research and animal care procedures were approved by the Lower Saxony district government (Hannover, Germany) and followed principles described in the European Community's Council Directive of 24 Nov. 1986 (86/609/EEC).
# (§2) Surgery and i.c.v. application. […]
# (§3) Animals were randomly divided into eight experimental groups (n=6-8/group), which completed one SI test of anxiety: (1) aCSF+aCSF+aCSF; (2) BIBP+aCSF+aCSF; (3) aCSF+P32/98+aCSF; (4) BIBP+P32/98+aCSF; (5) aCSF+aCSF+NPY; (6) BIBP+aCSF+NPY; (7) aCSF+[…]+NPY; (8) BIBP+P32/98+NPY. […] The time spent in active social interaction (SI-time), 1 h, and 12 h food-intake were measured. […]
# Social interaction (SI) test. […] Behavior was monitored using a video camera placed above the field inside the testing/isolation box. The SI behavior of both rats was recorded on-line from a monitor placed outside on top of the box. The following parameters were scored by an observer (HPN) unaware of the substrain of rats: duration of time spent in sniffing, following, crawling under and over other rats, but not passive body contact (resting, sleeping). […]
# (§4) Statistical analysis. Data obtained from the measures SI time and 1 h food intake were analyzed by one-way (factor: “treatment”) ANOVA. […]
# [2] = system: Male WistarF/Han (WF) rats; test: 1 h food-intake with Y1R antagonist BIBP3226, P32/98 and NPY (Example 4); format: in vivo, rat; settings: i.c.v. 50 nmol
# Experimental: as §1, §2, §3, §4
compound,measurement,setting,value
CC[C@H](C)[C@H](N)C(=O)N1CCSC1 [P32/98],"SI-time, P32/98 alone",[1],acts not anxiolytic-like
same,"1 h food-intake, P32/98 alone",[2],non-significant slight increase of feeding
